In article PMC6979384, “Characterization of the plant homeodomain (PHD) reader family for their histone tail interactions” (Epigenetics & Chromatin, 2020):

How the values were obtained:
Experiment in all cases: Histone peptide microarray
Type in all cases: binding, human
AIRE (PP) = settings: GST-tagged AIRE (PP)
In short: (§1)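 Each reader, produced as a GST fusion and purified, was tested at 0.5 μM on synthetic histone peptides (293 in total) carrying single or combinatorial marks. Intensities averaged over four replicates.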

BAZ2B = settings: GST-tagged BAZ2B
In short: as §1

BPTF (PB) = test system: BPTF (PB)
In short: as §1

CHD4 (PPCC) = test system: CHD4 (PPCC)
In short: as §1

CHD5 (PCC) = test system: CHD5 (PCC)
In short: as §1

CHD5 (PPCC) = test system: CHD5 (PPCC)
In short: as §1

DIDO1 = settings: GST-tagged DIDO1
In short: as §1

DPF2 (PPC2W2) = test system: DPF2 (PPC2W2)
In short: as §1

ING1 = settings: GST-tagged ING1
In short: as §1

ING2 = settings: GST-tagged ING2
In short: as §1

ING3 = settings: GST-tagged ING3
In short: as §1

ING4 = settings: GST-tagged ING4
In short: as §1

ING5 = settings: GST-tagged ING5
In short: as §1

KDM4C (TTP) = test system: KDM4C (TTP)
In short: as §1

KDM5A (1) = settings: GST-tagged KDM5A (1)
In short: as §1

KDM5A (3) = settings: GST-tagged KDM5A (3)
In short: as §1

KDM5B (1) = settings: GST-tagged KDM5B (1)
In short: as §1

KDM5B (3) = settings: GST-tagged KDM5B (3)
In short: as §1

KDM7A = settings: GST-tagged KDM7A
In short: as §1

MLL5 = settings: GST-tagged MLL5
In short: as §1

MORC3 (CW) = test system: MORC3 (CW)
In short: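 Steps: express and purify GST-tagged PHD reader; incubate 0.5 μM protein on a peptide microarray (293 histone peptides, single or combined PTMs) following an optimized protocol; average signal across 4 replicates.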

PHF13 = settings: GST-tagged PHF13
In short: as §1

PHF21A = settings: GST-tagged PHF21A
In short: as §1

PHF23 = settings: GST-tagged PHF23
In short: as §1

PHF2 = settings: GST-tagged PHF2
In short: as §1

PHF8 = settings: GST-tagged PHF8
In short: as §1

PHRF1 (RP) = settings: GST-tagged PHRF1 (RP)
In short: as §1

RAG2 = settings: GST-tagged RAG2
In short: as §1

SP140L = settings: GST-tagged SP140L
In short: as §1

TAF3 = settings: GST-tagged TAF3
In short: as §1

TRIM66 (PB) = test system: TRIM66 (PB)
In short: as §1

[1] = sheet Array Heatmap, each array performed twice, total n = 4
[2] = sheet "Array Heatmap", arrays performed twice, total replicate number n = 4

## H3R2me2a + T3p + K4me3 + K9ac + K14ac + K18ac: H3 1-20
AIRE (PP); [1]
  Array Heatmap signal (histone peptide microarray): 0.414
BAZ2B; [1]
  Array Heatmap signal (histone peptide microarray): 0.4718
BPTF (PB); GST-tagged BPTF (PB = PHD + Bromodomain), sheet Array Heatmap, each array performed twice, total n = 4
  Array Heatmap signal (histone peptide microarray): 0.3469
CHD4 (PPCC); GST-tagged CHD4 (PPCC = Dual PHD + Dual Chromodomain), sheet Array Heatmap, each array performed twice, total n = 4
  Array Heatmap signal (histone peptide microarray): 0.601
CHD5 (PCC); GST-tagged CHD5 (PCC = PHD + Dual Chromodomain), sheet Array Heatmap, each array performed twice, total n = 4
  Array Heatmap signal (histone peptide microarray): 0.7369
CHD5 (PPCC); GST-tagged CHD5 (PPCC = Dual PHD + Dual Chromodomain), sheet Array Heatmap, each array performed twice, total n = 4
  Array Heatmap signal (histone peptide microarray): 0.5374
DIDO1; [1]
  Array Heatmap signal (histone peptide microarray): 0.7634
DPF2 (PPC2W2); GST-tagged DPF2 (PPC2W2 = Dual PHD + C2W2-type Zn-finger), sheet Array Heatmap, each array performed twice, total n = 4
  Array Heatmap signal (histone peptide microarray): 0.7018
ING1; [1]
  Array Heatmap signal (histone peptide microarray): 0.5919
ING2; [1]
  Array Heatmap signal (histone peptide microarray): 0.6041
ING3; [1]
  Array Heatmap signal (histone peptide microarray): 0.4704
ING4; [1]
  Array Heatmap signal (histone peptide microarray): 0.4544
ING5; [1]
  Array Heatmap signal (histone peptide microarray): 0.3446
KDM4C (TTP); GST-tagged KDM4C (TTP = Tandem Tudor domain + PHD), sheet Array Heatmap, each array performed twice, total n = 4
  Array Heatmap signal (histone peptide microarray): 0.4624
KDM5A (1); [1]
  Array Heatmap signal (histone peptide microarray): 0.4561
KDM5A (3); [1]
  Array Heatmap signal (histone peptide microarray): 0.4737
KDM5B (1); [1]
  Array Heatmap signal (histone peptide microarray): 0.6524
KDM5B (3); [1]
  Array Heatmap signal (histone peptide microarray): 0.4463
KDM7A; [1]
  Array Heatmap signal (histone peptide microarray): 0.3252
MLL5; [1]
  Array Heatmap signal (histone peptide microarray): 0.5392
MORC3 (CW); GST-tagged MORC3 (CW = CW-type Zn-finger), sheet Array Heatmap, each array performed twice, total n = 4
  Array Heatmap signal (histone peptide microarray): 0.4346
PHF13; [1]
  Array Heatmap signal (histone peptide microarray): 0.5933
PHF21A; [1]
  Array Heatmap signal (histone peptide microarray): 0.4332
PHF23; [1]
  Array Heatmap signal (histone peptide microarray): 0.5518
PHF2; [1]
  Array Heatmap signal (histone peptide microarray): 0.6236
PHF8; [1]
  Array Heatmap signal (histone peptide microarray): 0.377
PHRF1 (RP); [1]
  Array Heatmap signal (histone peptide microarray): 0.4697
RAG2; [1]
  Array Heatmap signal (histone peptide microarray): 0.2569
SP140L; [1]
  Array Heatmap signal (histone peptide microarray): 0.3444
TAF3; [1]
  Array Heatmap signal (histone peptide microarray): 0.2554
TRIM66 (PB); GST-tagged TRIM66 (PB = PHD + Bromodomain), sheet Array Heatmap, each array performed twice, total n = 4
  Array Heatmap signal (histone peptide microarray): 0.5775

## H3 105-124: H3 105-124
AIRE (PP); [2]
  Array Heatmap signal, AIRE (PP): 0.5002
BAZ2B; [2]
  Array Heatmap signal, BAZ2B: 0.4756
BPTF (PB); sheet "Array Heatmap", GST-tagged BPTF (PB), arrays performed twice, total replicate number n = 4
  Array Heatmap signal, BPTF (PB): 0.3405
CHD4 (PPCC); sheet "Array Heatmap", GST-tagged CHD4 (PPCC), arrays performed twice, total replicate number n = 4
  Array Heatmap signal, CHD4 (PPCC): 0.628
CHD5 (PCC); sheet "Array Heatmap", GST-tagged CHD5 (PCC), arrays performed twice, total replicate number n = 4
  Array Heatmap signal, CHD5 (PCC): 0.8446
CHD5 (PPCC); sheet "Array Heatmap", GST-tagged CHD5 (PPCC), arrays performed twice, total replicate number n = 4
  Array Heatmap signal, CHD5 (PPCC): 0.5675
DIDO1; [2]
  Array Heatmap signal, DIDO1: 0.6132
DPF2 (PPC2W2); sheet "Array Heatmap", GST-tagged DPF2 (PPC2W2), arrays performed twice, total replicate number n = 4
  Array Heatmap signal, DPF2 (PPC2W2): 0.5942
ING1; [2]
  Array Heatmap signal, ING1: 0.4905
ING2; [2]
  Array Heatmap signal, ING2: 0.5916
ING3; [2]
  Array Heatmap signal, ING3: 0.4768
ING4; [2]
  Array Heatmap signal, ING4: 0.4475
ING5; [2]
  Array Heatmap signal, ING5: 0.3472
KDM4C (TTP); sheet "Array Heatmap", GST-tagged KDM4C (TTP), arrays performed twice, total replicate number n = 4
  Array Heatmap signal, KDM4C (TTP): 0.5235
KDM5A (1); [2]
  Array Heatmap signal, KDM5A (1): 0.4735
KDM5A (3); [2]
  Array Heatmap signal, KDM5A (3): 0.3849
KDM5B (1); [2]
  Array Heatmap signal, KDM5B (1): 0.6304
KDM5B (3); [2]
  Array Heatmap signal, KDM5B (3): 0.4564
KDM7A; [2]
  Array Heatmap signal, KDM7A: 0.4014
MLL5; [2]
  Array Heatmap signal, MLL5: 0.5209
MORC3 (CW); sheet "Array Heatmap", GST-tagged MORC3 (CW), arrays performed twice, total replicate number n = 4
  Array Heatmap signal, MORC3 (CW): 0.3313
PHF13; [2]
  Array Heatmap signal, PHF13: 0.6001
PHF21A; [2]
  Array Heatmap signal, PHF21A: 0.4845
PHF23; [2]
  Array Heatmap signal, PHF23: 0.5245
PHF2; [2]
  Array Heatmap signal, PHF2: 0.4643
PHF8; [2]
  Array Heatmap signal, PHF8: 0.3594
PHRF1 (RP); [2]
  Array Heatmap signal, PHRF1 (RP): 0.3871
RAG2; [2]
  Array Heatmap signal, RAG2: 0.2418
SP140L; [2]
  Array Heatmap signal, SP140L: 0.3548
TAF3; [2]
  Array Heatmap signal, TAF3: 0.2585
TRIM66 (PB); sheet "Array Heatmap", GST-tagged TRIM66 (PB), arrays performed twice, total replicate number n = 4
  Array Heatmap signal, TRIM66 (PB): 0.6004
